# Source: US20240041830A1, “CIRCULATING BIOMARKERS OF RESPONSE TO PD-1/PD-L1 BLOCKADE AND GSK-3 INHIBITION” (Brown University, priority 2022, published 2024)
# Legend:
# KM12C = experiment: microarray analysis; format: cell-based, human; details: 1 μM, 24 hours, vs untreated
# HCT-116 = experiment: Luminex 200 cytokine profiling of cell culture supernatant; format: cell-based, human; details: 1 μM or 5 μM, forty-eight hours
# Experimental: (§1) Collection of cell culture supernatants used in cytokine measurements. Cells were plated at 3.5×10^4 cells in a 48-well plate (Thermo Fisher Scientific, Waltham, MA, USA) in complete medium and incubated at 37° C. with 5% CO2. At twenty-four hours after plating, almost all the tumor cells were adherent to the bottom of the flask and the complete medium was replaced with the drug-containing medium. Subsequently, the culture supernatants were collected after forty-eight hours of incubation and were frozen at −80° C. until the measurement of cytokines was performed. On the day of analysis, samples were thawed and centrifuged to remove cellular debris.
# (§2) Human cytokine profiling. Human cell line culture supernatants were analyzed using an R&D systems Human Premixed Multi-Analyte Kit (R&D Systems, Inc., Minneapolis, MN, USA) and a Luminex 200 (RRID: SCR_018025) Instrument (LX200-XPON-RUO, Luminex Corporation, Austin, TX, USA) according to the manufacturer's instructions. Sample levels of TNF-α, 4-1BB/TNFRSF9/CD137, IL-8/CXCL8, Ferritin, IFN-β, IL-10, CCL2/JE/MCP-1, VEGF, CXCL13/BLC/BCA-1, IFN-γ, CCL20/MIP-3 α, CCL3/MIP-1 α, CCL22/MDC, CCL4/MIP-1 β, Fas Ligand/TNFSF6, IL-17/1L-17A, IL-2, BAFF/BLyS/TNFSF13B, GM-CSF, CXCLS/ENA-78, TRANCE/TNFSF11/RANK L, CXCL9/MIG, G-CSF, IFN-γ R1/CD119, VEGFR3/Flt-4, C-Reactive Protein/CRP, CXCL11/I-TAC, IL-21, CXCL14/BRAK, IL-6, Fas/TNFRSF6/CD95, TRAIL R3/TNFRSF10C, IL-4, CCL5/RANTES, PD-L1/137-H1, CCL7/MCP-3/MARC, Chitinase 3-like 1, CXCL10/IP-10/CRG-2, IL-1 μ/IL-1F2, IL-7, Prolactin, CCL8/MCP-2, TRAIL R2/TNFRSF10B, M-CSF, IL-15, Granzyme B, IFN-α, TREM-1, IL-12/1L-23 p40, TRAIL/TNFSF10, CCL11/Eotaxin, and 1L-18/1L-1F4. Quantitative analysis with 6 standards and a minimum of 50 counts per bead region was used with the Luminex to generate analyte values reported as picograms/milliliter (pg/mL). Sample concentrations less than the lower limit of detection for each particular analyte were recoded as the lower limit value divided by 10. Sample concentrations above the upper limit of detection for a particular analyte were recoded as the upper limit of detection.
# (§3) Huntington, Louie, Zhou, & EI-Deiry, Oncotarget, 12, 1980-1991 (2021). The inventors in this EXAMPLE treated tumor cells (HCT-116, HT-29) with 1 μM or 5 μM elraglusib for forty-eight hours and subsequently analyzed the cell culture supernatant using Luminex 200 technology (FIG. 2H,I).
# HT-29 = experiment: as above; format: cell-based, human; details: 1 μM or 5 μM, forty-eight hours
# Experimental: as §1, §2, §3
# HCT 116 GFP+ cells = experiment: single-color GFP+ immune cell co-culture
# Experimental: (§4) Single-color immune cell co-culture experiments. A total of 5000 HT-29 GFP+ or HCT 116 GFP+ cells were plated per well in a clear-bottom, black-walled 96-well tissue culture plate and were allowed to adhere overnight. Cells were subsequently treated with DMSO, 5 μM elraglusib, or 5000 TALL-104 or NK-92 cells (for an effector-to-tumor ratio of 1:1) for forty-eight hours. Nine images were taken per well at 10× magnification using a Molecular Devices ImageXpress® Confocal HT.ai High-Content Imaging System and quantified for the number of GFP+ objects using the MetaXpress (RRID: SCR_016654) software (Molecular Devices, San Jose, CA, USA). 40× images were also taken at twenty-four hours for representative images of cellular morphology changes.
# (§5) To determine if pyroptosis-mediated immune cell activity played a role in the co-culture results, the inventors examined higher-power co-culture images for evidence of pyroptosis.
# HT-29 GFP+ cells = experiment: single-color GFP+ immune cell co-culture
# Experimental: as §4, §5
# [1] = co-culture with TALL-104, 5 μM elraglusib
smiles,measurement,setting,value
Cn1cc(C2=C(c3coc4ccc(F)cc34)C(=O)NC2=O)c2cc3c(cc21)OCO3 [elraglusib],AGGF1 Fold Change,KM12C,−1.6
same,BARD1 Fold Change,KM12C,−3.03
same,BCL9 Fold Change,KM12C,−1.55
same,BIK Fold Change,KM12C,1.51
same,BRAF Fold Change,KM12C,−2.05
same,BRCA1 Fold Change,KM12C,−1.71
same,BRD3 Fold Change,KM12C,−1.58
same,CCND2 Fold Change,KM12C,−1.58
same,CCNE1 Fold Change,KM12C,−1.57
same,CCNE2 Fold Change,KM12C,−2.64
same,CD109 Fold Change,KM12C,−2.09
same,CDC25C Fold Change,KM12C,−1.55
same,CDCA2 Fold Change,KM12C,−1.51
same,CDK1 Fold Change,KM12C,−2
same,CXCL1 Fold Change,KM12C,−1.53
same,E2F7 Fold Change,KM12C,−2.5
same,E2F8 Fold Change,KM12C,−3.16
same,ERBB2IP Fold Change,KM12C,−1.88
same,FZD3 Fold Change,KM12C,−1.76
same,GDF15 Fold Change,KM12C,−2.29
same,GZMA Fold Change,KM12C,1.53
same,IGF2BP2 Fold Change,KM12C,−1.51
same,IL6ST Fold Change,KM12C,−1.88
same,IL27RA Fold Change,KM12C,−1.72
same,IL32 Fold Change,KM12C,1.55
same,IRF2BP2 Fold Change,KM12C,−1.6
same,JMY Fold Change,KM12C,−2.03
same,LTBP1 Fold Change,KM12C,−2.24
same,MAP2K6 Fold Change,KM12C,−3.66
same,MAP3K1 Fold Change,KM12C,−1.92
same,MDM2 Fold Change,KM12C,−1.61
same,MET Fold Change,KM12C,−1.79
same,MKI67 Fold Change,KM12C,−1.53
same,MTBP Fold Change,KM12C,−1.58
same,MTDH Fold Change,KM12C,−1.74
same,NFKBIA Fold Change,KM12C,−2.51
same,NRP1 Fold Change,KM12C,−1.88
same,TAB3 Fold Change,KM12C,−1.63
same,TGFBR2 Fold Change,KM12C,−2.11
same,TGFBR3 Fold Change,KM12C,−3.72
same,TLR3 Fold Change,KM12C,−2.25
same,TNFRSF1B Fold Change,KM12C,−1.56
same,TNFRSF10A Fold Change,KM12C,−1.54
same,TNFRSF11A Fold Change,KM12C,−1.64
same,TNFRSF12A Fold Change,KM12C,1.53
same,TNIK Fold Change,KM12C,−1.59
same,TRAF5 Fold Change,KM12C,−1.52
same,TRAF6 Fold Change,KM12C,−1.57
same,TRAIP Fold Change,KM12C,1.53
same,TRIB1 Fold Change,KM12C,−2.37
same,GDF-15 secretion,HCT-116,decreased secretion
same,GM-CSF secretion,HCT-116,decreased secretion
same,VEGF secretion,HCT-116,decreased secretion
same,CCL5/RANTES in supernatant,HCT-116; cell line not given,downregulated
same,DcR3 in supernatant,HCT-116; cell line not given,downregulated
same,Fas in supernatant,HCT-116; cell line not given,downregulated
same,soluble PD-L1 (sPD-L1) in supernatant,HCT-116; cell line not given,downregulated
same,GDF-15 secretion,HT-29,decreased secretion
same,GM-CSF secretion,HT-29,decreased secretion
same,VEGF secretion,HT-29,decreased secretion
same,CCL5/RANTES in supernatant,HT-29; cell line not given,downregulated
same,DcR3 in supernatant,HT-29; cell line not given,downregulated
same,Fas in supernatant,HT-29; cell line not given,downregulated
same,soluble PD-L1 (sPD-L1) in supernatant,HT-29; cell line not given,downregulated
same,tumor cell death,HCT 116 GFP+ cells; 5 μM elraglusib and NK-92 vs drug-only or immune-cell-only,increased tumor cell death
same,GFP+ cells per low-powered field,"HCT 116 GFP+ cells; 5 μM elraglusib only vs DMSO only, forty-eight hours",significant decrease
same,number of GFP+ cells per field,HCT 116 GFP+ cells; TALL-104 and 5 μM elraglusib vs TALL-104,significant decrease
same,pyroptotic events,HCT 116 GFP+ cells; [1],significant increase
same,"tumor cell death, significance",HT-29 GFP+ cells; NK-92 + elraglusib vs elraglusib only,did not show statistical significance
same,tumor cell death,HT-29 GFP+ cells; NK-92 + elraglusib vs immune cells only and DMSO only,increased tumor cell death
same,tumor cell death,HT-29 GFP+ cells; TALL-104 + 5 μM elraglusib vs drug-only or T cell-only,increased tumor cell death
same,pyroptotic events,HT-29 GFP+ cells; [1],significant increase
